Values of other authors, collected in patent US20240108699A1 (priority 2022, published 2024).

Settings: in vivo

Botulinum toxin complex A [BoNT-A]
time for which effects are maintained: three to six
